In US20160303231A1, “TREATING CANCER WITH A COMBINATION OF A PD-1 ANTAGONIST AND A VEGFR INHIBITOR” (GLAXOSMITHKLINE LLC, priority 2013, published 2016):
Where a name gives a salt, the structure may show the parent alone.

Test system: RENCA cells
Assay: Anti-tumor response of tumor-bearing mice (RENCA tumor model)
Type: in vivo, BALB/c mice
Settings: for Tumor Size (D17): Mean ± SEM, day 17
Method: A cohort of 8 weeks old female BALB/c mice were implanted with 1×10^6 RENCA cells. […] The Vehicle control was 0.5% hydroxypropylemethylcellulose, 0.1% Tween-80 in distilled water, pH adjusted to 1.3-1.5 with 0.1N hydrochloric acid. The Isotype control was mouse IgG1 specific for an adenoviral hexon protein (clone TC31.27F11).
A one-way ANOVA test was performed to compare tumor volume at the end of study among groups.

[1] = G4: Isotype 5 mpk + Pazopanib 100 mpk qd
[2] = G6: Isotype 1 mpk + Pazopanib 100 mpk qd
[3] = G8: Isotype 5 mpk + Pazopanib 100 mpk bid

Structure (SMILES): Cc1ccc(Nc2nccc(N(C)c3ccc4c(C)n(C)nc4c3)n2)cc1S(N)(=O)=O [Pazopanib, 5-[[4-[(2,3-dimethyl-2H-indazol-6-yl)methylamino]-2-pyrimidinyl]amino]-2-methylbenzenesulfonamide monohydrochloride]
- T/C [1]: 61%
- TGI (tumor growth inhibition) [1]: 39%
- T/C [2]: 70%
- TGI (tumor growth inhibition) [2]: 30%
- Tumor Size (D17) [2]: 1,751 ± 214 mm^3
- T/C [3]: 48%
- TGI (tumor growth inhibition) [3]: 52%
- Tumor Size (D17) [3]: 1,240 ± 97 mm^3
